# Assay results taken from patent publication US20230321033A1, “THIOPHEN COMPOUNDS FOR USE IN THE TREATMENT OF RENAL FIBROSIS” (ENYO PHARMA, priority 2020, published 2023).
# Entries after “also recorded” stand apart in the source; their conditions may differ.
# Key:
# [1] = tested on: kidneys of NASH mice (AMLN diet); assay: Renal fibrosis in NASH mouse model, picrosirius red (PSR) staining of kidneys; assay type: in vivo; conditions: mice on AMLN diet 30 weeks, then PO treatment 8 weeks twice a day, 7 or 20 mg/kg; kidneys at sacrifice
# Experimental: (§1) Compound #157 was evaluated in a mouse model of NASH. Mice were fed with an AMLN diet (high in fat (40%), fructose (22%) and cholesterol (2%)) for 30 weeks prior treatment with Compound #157 for 8 weeks twice a day at a dose of 7 or 20 mg/kg.
# (§2) The livers and kidneys were collected at sacrifice. Fibrosis, in particular tubulointerstitial fibrosis, has been evaluated by quantification of the picrosirius red (PSR) staining positive areas. Inflammation has been quantified on CD3 stained sections.
# [2] = tested on: kidneys of NASH mice (AMLN diet); assay: Renal inflammation in NASH mouse model, CD3 stained kidney sections; assay type: in vivo; conditions: mice on AMLN diet 30 weeks, then PO treatment 8 weeks twice a day, 7 or 20 mg/kg; kidneys at sacrifice
# Experimental: as §1, §2
compound,measurement,setting,value
O=C(Nc1scc(C2CCc3ccccc3C2)c1C(=O)O)c1ccccc1 (stereo not drawn) [Compound #157],"renal fibrosis (tubulointerstitial), quantification of picrosirius red (PSR) staining positive areas",[1],completely resolve fibrosis; also recorded: significantly decreases renal fibrosis
same,decrease of renal inflammation (CD3 stained sections),[2],50%
same,"renal inflammation (lymphocytes infiltration), quantified on CD3 stained sections",[2],attenuate significantly inflammation; also recorded: significantly decreases renal inflammation
